Where two headings read alike, the source gives them in different places.
Test system: Fusarium graminearum
Format: in vivo
Settings: seed treatment 0.3 mg ai/seed
[1] = corn, 36 days after planting, F. graminearum inoculum in furrow

Compound: O=C(NCCc1ncc(C(F)(F)F)cc1Cl)c1ccccc1C(F)(F)F [Fluopyram]
- Count plant number per 12 row meter (corn (Zea mays, variety N29t), plant stand 36 days after planting, F. graminearum inoculum in furrow, on base treatment): 54.58, B per 12 row meter
- efficacy against Fusarium graminearum, in words (corn field trial, high disease pressure): moderate control
- % efficacy based on loss of plants due to disease [1]: 49.95%
- % loss of plants due to disease based on a maximum of 60 plants per 12 row meters [1]: 9.03%
- % loss of plants due to disease based on a maximum of 60 plants per 12 row meters (corn, 36 days after planting, F. graminearum inoculum in furrow, listed as commercial standard): 9%
